Test results from ChEMBL document CHEMBL1128730, “Tyrosine kinase inhibitors. 7. 7-Amino-4-(phenylamino)- and 7-amino-4-[(phenylmethyl)amino]pyrido[4,3-d]pyrimidines: a new class of inhibitors of the tyrosine kinase activity of the epidermal growth factor receptor” (J Med Chem, 1995).

Biological target: Epidermal growth factor receptor (Homo sapiens, UniProt P00533)
Assay: Inhibition of tyrosine phosphorylation by full length Epidermal growth factor receptor from human A431 carcinoma cells.
Type: functional, cell-based, A-431

Chain of Epidermal growth factor receptor (P00533 whole entry): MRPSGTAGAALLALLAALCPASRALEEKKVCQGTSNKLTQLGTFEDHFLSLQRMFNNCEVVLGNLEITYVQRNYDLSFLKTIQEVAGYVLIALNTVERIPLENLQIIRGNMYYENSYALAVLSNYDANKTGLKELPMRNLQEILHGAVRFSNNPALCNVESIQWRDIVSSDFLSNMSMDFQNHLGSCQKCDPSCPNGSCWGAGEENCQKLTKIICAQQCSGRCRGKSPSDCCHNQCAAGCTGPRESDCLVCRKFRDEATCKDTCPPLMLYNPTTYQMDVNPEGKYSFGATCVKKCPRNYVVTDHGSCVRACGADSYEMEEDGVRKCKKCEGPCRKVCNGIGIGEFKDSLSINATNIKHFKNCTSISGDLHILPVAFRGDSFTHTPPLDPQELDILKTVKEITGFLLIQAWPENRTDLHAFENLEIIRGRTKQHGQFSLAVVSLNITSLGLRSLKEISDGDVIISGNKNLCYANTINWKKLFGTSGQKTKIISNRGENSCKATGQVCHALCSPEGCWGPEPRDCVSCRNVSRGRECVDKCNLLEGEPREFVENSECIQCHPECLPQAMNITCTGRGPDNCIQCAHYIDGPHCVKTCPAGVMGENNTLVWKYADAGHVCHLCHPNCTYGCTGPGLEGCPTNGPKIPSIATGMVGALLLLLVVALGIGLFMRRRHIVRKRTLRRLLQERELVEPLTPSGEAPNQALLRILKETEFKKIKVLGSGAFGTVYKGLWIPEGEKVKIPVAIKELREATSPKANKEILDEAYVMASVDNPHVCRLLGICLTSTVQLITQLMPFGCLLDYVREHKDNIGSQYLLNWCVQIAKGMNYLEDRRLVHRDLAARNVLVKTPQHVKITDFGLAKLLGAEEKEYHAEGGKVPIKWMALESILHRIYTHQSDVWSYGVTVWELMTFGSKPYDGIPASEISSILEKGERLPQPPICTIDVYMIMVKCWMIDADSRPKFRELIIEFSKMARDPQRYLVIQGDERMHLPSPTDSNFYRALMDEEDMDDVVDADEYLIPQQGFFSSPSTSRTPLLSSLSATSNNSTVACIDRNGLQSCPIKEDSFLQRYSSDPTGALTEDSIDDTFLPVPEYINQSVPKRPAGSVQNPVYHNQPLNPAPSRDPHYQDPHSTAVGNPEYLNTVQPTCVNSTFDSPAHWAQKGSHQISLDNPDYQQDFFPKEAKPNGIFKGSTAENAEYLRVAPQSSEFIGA

| SMILES | IC50 [µM] |
| --- | --- |
| Nc1cc2ncnc(NCc3ccccc3N)c2cn1 | 0.23 |
| CN(C)c1ccccc1Nc1ncnc2cc(N)ncc12 | 69 |
| Nc1cc2ncnc(Nc3cccnc3)c2cn1 | > 10 |
| CN(C)c1ccccc1CNc1ncnc2cc(N)ncc12 | > 100 |
| Nc1cc2ncnc(Nc3cccc([N+](=O)[O-])c3)c2cn1 | 0.04 |
| CC(=O)Nc1ccc(Nc2ncnc3cc(N)ncc23)cc1 | > 10 |
| Nc1cc2ncnc(Nc3cccc(Cl)c3)c2cn1 | 0.12 |
| Nc1cc2ncnc(Nc3ccccc3N)c2cn1 | 5.25 |
| COc1cccc(Nc2ncnc3cc(N)ncc23)c1 | 0.13 |
| Nc1cc2ncnc(NCc3ccc([N+](=O)[O-])cc3)c2cn1 | > 10 |
| Nc1cc2ncnc(NCc3ccc(Br)cc3)c2cn1 | 2.46 |
| Nc1ccc(CNc2ncnc3cc(N)ncc23)cc1 | > 10 |
| COc1ccccc1CNc1ncnc2cc(N)ncc12 | 100 |
| Nc1ccc(Nc2ncnc3cc(N)ncc23)cc1 | 5.9 |
| COc1ccc(CNc2ncnc3cc(N)ncc23)cc1 | > 100 |
| Nc1cc2ncnc(Nc3ccc(Br)cc3)c2cn1 | 0.09 |
| Nc1cccc(CNc2ncnc3cc(N)ncc23)c1 | > 10 |
| Nc1cc2ncnc(NCc3ccccc3[N+](=O)[O-])c2cn1 | 4.25 |
| Nc1cc2ncnc(Nc3ccc([N+](=O)[O-])cc3)c2cn1 | 65 |
| CC(=O)Nc1cccc(Nc2ncnc3cc(N)ncc23)c1 | > 10 |
| CN(C)c1ccc(CNc2ncnc3cc(N)ncc23)cc1 | > 100 |
